The record followed here is patent US8557770B2, “Method of preventing or reducing scarring of human skin” (Pharmecosse Ltd., priority 2000, dated 2013).

For series [1], the system named is fibroblast cultures from normal skin. As to the kind of experiment: In vitro myofibroblast differentiation assay (α-smooth muscle actin staining), normal skin fibroblasts. The class given is cell-based, human. The conditions noted are these: GF depleted medium + 5 μg/ml, 14 days. The source says:
(§1) One of the most important cell types in both normal and pathological scar formation is the myofibroblast. These cells, which differentiate from the unwounded tissue cell type (fibroblasts), are responsible for laying down scar tissue. Indeed myofibroblasts remain present in hypertrophic scars up to four years after the original wounding event. An in vitro assay was accordingly developed to identify actives which prevent or reduce myofibroblast formation and thus identify actives which are effective in reducing and/or preventing scar tissue formation.
(§2) Fibroblast cultures were initiated from normal skin, normal scars, hypertrophic scars (HTS) and burns scars.
Each culture was split into seven parts (A to G) and grown in the following different growth media: […]
(§3) The fibroblasts were grown in these media (which was replenished twice weekly) for fourteen days, fixed and stained immunohistochemically using an antibody specific for α-smooth muscle actin (a marker of myofibroblasts). […] The number of these was counted, as was the total number of cells present, and the proportion of myofibroblasts was then calculated. In this manner, the number of myofibroblasts present in each culture was determined as a percentage of the total number of cells in the culture population.

In series [2] the test system is fibroblast cultures from normal scars. Nature of the series: In vitro myofibroblast differentiation assay (α-smooth muscle actin staining), normal scar fibroblasts. The class given is cell-based, human.
Text: as §1, §2
(§4) Each culture was split into seven parts (A to G) and grown in the following different growth media:
(§5) (A) was grown in normal growth medium (hereinafter referred to as NGM) which consisted of Dulbecco's modified Eagles Medium (DMEM) plus 10% Foetal Calf Serum (FCS);
(§6) (B) was grown in growth factor depleted medium (hereinafter referred to as GF depleted) which is NGM that is depleted of active polypeptide growth factors including TGFP. It is prepared by treating FCS with a reducing agent in order to attack and cleave the disulphide bonds that determine the conformation and thus the biological activity of the polypeptide growth factors;
(§7) (D) (D1-D4) were grown in growth factor depleted medium plus 1 ng/ml-100 ng/ml of insulin-like Growth Factor-I) (IGF-I) (hereinafter referred to as GF depleted+IGF-I); (E) (E1-E3) were grown in growth factor depleted medium plus 50 ng/ml-[…] of insulin-like Growth Factor II (IGF-II) (hereinafter referred to as GF depleted+IGFII); (F) (F1F3) were grown in growth factor depleted medium plus 25 ng/ml to 100 ng/ml of basic fibroblast growth factor (bFGF) (hereinafter referred to as GF depleted and bFGF); […]
as §3
(§8) Fibroblast cultures were initiated from normal scars (NS) and hypertrophic scars (HTS). […] The number of myofibroblasts was calculated as a percentage of the total cell population and the results are shown in FIGS. 1 and 2 of the drawings.
(§9) Fibroblasts cultures were initiated from normal and hypertrophic scars. […] The number of myofibroblasts were counted and calculated as a percentage of the total cells present.

The test system of series [3] is fibroblast cultures from hypertrophic scars (HTS). As to the kind of experiment: In vitro myofibroblast differentiation assay (α-smooth muscle actin staining), hypertrophic scar fibroblasts. Format: cell-based, human.
Text: as §1, §2, §4, §5, §6, §7, §3, §8, §9

For series [4], the system named is fibroblast cultures from burns scars. As to the kind of experiment: In vitro myofibroblast differentiation assay (α-smooth muscle actin staining), burns scar fibroblasts. The class given is cell-based, human. The conditions noted are these: 14 days.
Text: as §1, §2, §4, §5, §6
(D) (D1-D4) were grown in growth factor depleted medium plus 1 ng/ml-100 ng/ml of insulin-like Growth Factor-I) (IGF-I) (hereinafter referred to as GF depleted+IGF-I); (E) (E1-E3) were grown in growth factor depleted medium plus 50 ng/ml-[…] of insulin-like Growth Factor II (IGF-II) (hereinafter referred to as GF depleted+IGFII); (F) (F1F3) were grown in growth factor depleted medium plus 25 ng/ml to 100 ng/ml of basic fibroblast growth factor (bFGF) (hereinafter referred to as GF depleted and bFGF);
(G) (G1-G3) were grown in growth factor depleted medium plus 25 ng/ml to 100 ng/ml of platelet derived growth factor (PDGF) (hereinafter referred to as GF depleted+PDGF).
The fibroblasts were grown in these media (which was replenished twice weekly) for fourteen days, fixed and stained immunohistochemically using an antibody specific for α-smooth muscle actin (a marker of myofibroblasts). The stain caused α-smooth muscle actin to fluoresce green and accordingly cells that had stained green were identified as myofibroblasts. The number of these was counted, as was the total number of cells present, and the proportion of myofibroblasts was then calculated. In this manner, the number of myofibroblasts present in each culture was determined as a percentage of the total number of cells in the culture population.

Series [5] has as its system murine incisional wounds (myofibroblasts). As to the kind of experiment: Murine incisional wound healing model, α-smooth muscle actin staining score. The class given is in vivo, male BALB/c mice. The source says: After general anesthesia, both posterior flanks on male BALB/c mice were shaved and cleaned with chlorhexidine in spirit. Two 1.5 cm wounds were marked (one in each flank) parallel to the spine with permanent marker. Full thickness incisions were made along these marks down to the level of the chest wall. Both lateral skin flaps were dissected from the underlying chest wall and the wound assessed from hemorrhage. The wound edges were then infiltrated with test substance or vehicle only control, as appropriate, by injection into the wound edges. Insulatard® was diluted in normal saline (0.9%) to give a final test solution of 1 IU/ml. 0.15 ml of this test solution (0.15 IU) was applied to one of the test wounds and saline alone was applied to the contralateral wound on the same animal. Wounds were closed with interrupted 5/0 Prolene® suture. Mice were recovered from the anesthetic individually and housed in groups of 4. […]
The wounds were analysed in the following manner: The comparison of the actual severity of scarring is impossible in this and all other animal models, since in contrast to human wounds, animal wounds are rapidly closed by way of swift epidermal contraction leaving minimal areas of scarring in any case. We therefore attempted to judge the efficacy of insulin in vivo on its ability to affect the number of myofibroblasts present using immunohistochemical staining methods for the myofibroblast marker, α smooth muscle actin. To allow semi-quantitative analysis of the resulting staining, a visual grading system was developed. Scars were assessed and allocated a score depending on the intensity of alpha smooth muscle actin staining within each section. […] Each scar was assessed at a number (minimum of 3) points along its length and the intensity was scored and averaged for each section to allow comparisons between treatments. Two independent assessors assessed the scoring blindly. The number of wounds assessed for each experimental group was 8. […]

Series [6] relates to dermal fibroblast cell lines. As to the kind of experiment: Myofibroblast number in dermal fibroblast cell lines in GFD medium with PPAR agonist. The class given is cell-based, human. Conditions: 1 IU/ml insulin alone, 14 days. The source says:
Dermal fibroblast cell lines were derived from 3 patients and seeded individually onto sterile coverslips. […] Medium was refreshed twice weekly and cultures were harvested for immunohistochemical staining for α-smooth muscle actin after 14 days. The number of myofibroblasts was counted and calculated as a percentage of the total cells present, and since the ability of each cell line to differentiate into myofibroblasts varied extensively, the results were normalised as follows. Results are expressed as the mean percentage reduction in myofibroblast number for each treatment as compared to the proportion of myofibroblasts identified in GFD medium alone for that cell line. The error bars represent plus or minus one standard deviation.

The test system of another series is murine incisional scars. The conditions noted are these: 1 dose of insulin (Day 0), harvested after 14 days, n=4.

Procedure for murine incisional scars: Scars were wrapped in saline soaked swabs and transported immediately to the laboratory for testing. Each scar was dissected into 2 equal strips (perpendicular to the line of the scar), each of which was measured using a Nikon Shadowmeter. The strip of tissue was mounted on the tensiometer, with the scar mounted at 6 mm from the jaws of the clamps. Traction was applied across the scar at a constant rate of 10 mm/minute, and the force required for disruption of the scar measured. Stress values were calculated by normalising load values to cross-sectional area of each specimen and are given in units of MPa.

On to “Insulin: polypeptide hormone; in vivo and Example 9 tests used Insulatard diluted in saline”, for which the “Number of myofibroblasts - percentage of total cell population” value in series [1] was 5.26 percentage of total cell popul; in series [2] (GF depleted medium + 5 μg/ml, 14 days), 6.14 percentage of total cell popul; in series [3] (HTS fibroblasts, GF depleted medium + 5 μg/ml, 14 days), 3.23 percentage of total cell popul; in series [4] (GF depleted medium + 10 ng/ml), 16.44 percentage of total cell popul; in series [4] (GF depleted medium + 100 ng/ml), 15.91 percentage of total cell popul; in series [4] (GF depleted medium + 5 μg/ml), 8.20 percentage of total cell popul. For the same substance, the “Effect on induction of myofibroblast differentiation by active TGFβ1” value is reported as “no effect on the rapid induction of myofibroblast differentiation” in series [2] (NGM plus 5 μg/ml insulin plus 0.5 ng/ml TGFβ1, 5 days) and “no effect on the rapid induction of myofibroblast differentiation” in series [3] (hypertrophic scar fibroblasts, NGM plus 5 μg/ml insulin plus 0.5 ng/ml TGFβ1, 5 days). Besides, the “Mean score of α-smooth muscle actin staining (out of maximum of 3)” value in series [5] (0.15 IU Insulatard injected into wound edges, day 14, 8 wounds) was determined as 0.486. In addition, the Myofibroblast score result in series [5] (single dose 0.15 IU on day 0, day 14 after wounding (FIG. 4)) is “dropping down to normal”. The Maximum myofibroblast score in series [5] (single dose 0.15 IU on day 0, maximum reached over first 7 days (FIG. 4)) was determined as 1.92. Besides, the “Mean percentage reduction in myofibroblast number compared to GFD medium alone” value in series [6] is 76.6%. For the same substance, the “Median wound breaking strength” value with murine incisional scars is reported as 1.62 MPa.
